20 compounds from patent US10792282B2, “Protein kinase C inhibitors and uses thereof” (Rigel Pharmaceuticals, Inc., priority 2013, dated 2020) can be followed below.

Where two headings read alike, the source gives them in different places.

The test concerns PKC mediated IL-2 production. Nature of the test: IL-2 ELISA, human primary T cell, anti CD3+CD28+ (whole cell functional assay). Type of test: cell-based. The procedure: Human primary T cells were prepared as follows. Fresh PBMC's from All Cells (Cat # PB002) were re-suspended in RPMI (RPMI-1640 with L-Glutamine; Mediatech, Inc., Herndon Va., cat. #10-040-CM) with 10% FBS and seeded into flasks and incubated at 37° C. for 2 hours to allow the monocytes to adhere. The non-adherent cells were then centrifuged and re-suspended in RPMI medium containing 40 U/ml IL2 and seeded into a flask pre-coated with 1 μg/ml aCD3 and 5 ug/ml aCD28 (Anti-Human CD3, BD Pharmingen Catalog #555336, Anti-Human CD28, Beckman Coulter Catalog # IM1376). The cells were stimulated for 3-4 days, then transferred to a fresh flask and maintained in RPMI (RPMI-1640 with L-Glutamine; Mediatech, Inc., Herndon Va., cat. #10-040-CM) with 10% FBS and 40 U/ml IL-2.
(§1) Human primary T cells (100,000 cells per well) were pre-incubated with or without test compound in RPMI-1640 with L-Glutamine and 10% FBS for 1 hour at 37° C. Cells were then stimulated by transferring them to round-bottom 96-well plates pre-coated with 1 μg/ml αCD3 and 5 μg/ml αCD28. For counter assay, cells were instead stimulated by adding 8× stock solutions of PMA and ionomycin in RPMI-1640 with L-Glutamine and 10% FBS (for final concentrations of 0.5 ng/ml PMA and 0.1 μM ionomycin, both from Calbiochem). Cells were incubated at 37° C. for 24 hours before 100 μL supernatants were harvested for quantification of IL-2 by ELISA using Human IL-2 Duoset ELISA Kit from R and D Systems, Cat. # DY202E.
Compounds 1-90 were tested in a whole cell functional assay for PKC mediated IL-2 production as follows. Human primary T cell isolation and culture: Human primary T cells were prepared as follows. Whole blood was obtained from a healthy volunteer, mixed 1:1 with PBS, layered on to Ficoll Hypaque (Amersham Pharmacia Biotech, Piscataway, N.J., Catalog #17-1440-03) in 2:1 blood/PBS:ficoll ratio and centrifuged for 30 minutes at 4° C. at 1750 rpm. The cells at the serum: ficoll interface were recovered and washed twice with 5 volumes of PBS. These freshly isolated human peripheral blood mononuclear cells were cultured in Yssel's medium containing 40 U/ml IL2 in a flask pre-coated with 1 μg/ml αCD3 and 5 μg/ml αCD28 (Anti-Human CD3, BD Pharmingen Catalog #555336, Anti-Human CD28, Beckman Coulter Catalog # IM1376). The cells were stimulated for 3-4 days, then transferred to a fresh flask and maintained in RPMI (RPMI-1640 with L-Glutamine; Mediatech, Inc., Herndon Va., cat. #10-040-CM) with 10% FBS and 40 U/ml IL-2. The primary T-cells were then washed twice with PBS to remove the IL-2.
as §1, with “Primary T cell stimulation and IL2 ELISA: Human primary” for “Human primary”, “compound in Yssel's medium for 1” for “compound in RPMI-1640 with L-Glutamine and 10% FBS for 1”, “ionomycin in Yssels (for final” for “ionomycin in RPMI-1640 with L-Glutamine and 10% FBS (for final”, “and 0.1 uM ionomycin, both” for “and 0.1 μM ionomycin, both”
Background: An ELISA detects its analyte on a solid surface through an enzyme-linked reagent.

Setting [1] is: Homo sapiens, T-cell, 24 h, IL-2 production, human primary T cells stimulated with αCD3 and αCD28, 24 hours, IL-2 by ELISA, read-out: EC50.
The mark [2] stands for this setting: Homo sapiens, T-cell, human primary T cells stimulated with αCD3 and αCD28, IL-2 by ELISA, read-out: EC50 (blocked IL-2 production).
[3] abbreviates: IL-2 production, human primary T cells stimulated with αCD3 and αCD28, 24 hours, IL-2 by ELISA, read-out: EC50.

For `Cn1nnn(-c2cc(Nc3ncc(C#N)c(N[C@@H]4C[C@@H]5CCCN5C(C)(C)C4)n3)c(F)cc2OC(C)(C)CO)c1=O` [Compound 84, 4-((7R,8aS)-octahydro-5,5-dimethylindolizin-7-ylamino)-2-(4-(1-hydroxy-2-methylpropan-2-yloxy)-2-fluoro-5-(4,5-dihydro-4-methyl-5-oxotetrazol-1-yl)phenylamino)pyrimidine-5-carbonitrile], the EC50 reads like this: under setting [1], less than 0.5 µM; under setting [2], less than 10 µM.
As to `Cn1nnn(-c2cc(Nc3ncc(F)c(N[C@H]4CCN5[C@@H](CCC5(C)C)C4)n3)c(F)cc2C2CC2)c1=O` (single isomer, unassigned) [Compound 37], under setting [3], the EC50 was less than 10 µM.
Consider `CC1(C)CC(Nc2nc(Nc3ccc(O[C@@H]4CCOC4)c(C#N)c3)ncc2F)CC2CCCN21` (single isomer, unassigned) [Compound 59], for which the EC50 under setting [3] is less than 0.5 µM.
Turning to `CC1(C)Oc2ccc(Nc3ncc(F)c(NC4CC5CCCN5C(C)(C)C4)n3)cc2-n2nnnc21` (stereo not drawn) [Compound 3, N2-(4,4-dimethyl-4H-benzo[b]tetrazolo[1,5-d][1,4]oxazin-8-yl)-5-fluoro-N4-(octahydro-5,5-dimethylindolizin-7-amine)pyrimidine-2,4-diamine], the EC50 under setting [3] is less than 1 µM.
Take `Cn1nnn(-c2cc(Nc3ncc(F)c(N[C@H]4C[C@@H]5C[C@@H](F)CN5C(C)(C)C4)n3)c(F)cc2C2CC2)c1=O` [Compound 65, 1-(5-(4-((2R,7S,8aR)-2-fluoro-octahydro-5,5-dimethylindolizin-7-ylamino)-5-fluoropyrimidin-2-ylamino)-2-cyclopropyl-4-fluorophenyl)-4-methyl-1H-tetrazol-5(4H)-one]: the EC50 reads like this: under setting [1], less than 10 µM; under setting [2], less than 10 µM.
For `Cn1nnn(-c2cc(Nc3ncc(F)c(NC4CC(=O)N5C(CCC5(C)C)C4)n3)c(F)cc2C2CC2)c1=O` (stereo not drawn) [Compound 30], the EC50 is, setting by setting: under setting [1], greater than 10 µM; under setting [2], less than 10 µM.
As for `Cn1nnn(-c2cc(Nc3ncc(F)c(N[C@@H]4C[C@@H]5CCCN5C(C)(C)C4)n3)c(F)cc2OCC(C)(C)O)c1=O` [Compound 87, 1-(5-(4-((7R,8aS)-5,5-dimethyloctahydroindolizin-7-ylamino)-5-fluoropyrimidin-2-ylamino)-4-fluoro-2-(2-hydroxy-2-methylpropoxy)phenyl)-4-methyl-1H-tetrazol-5(4H)-one], the EC50 is less than 0.1 µM under setting [1] and less than 10 µM under setting [2].
Consider `Cn1nnn(-c2cc(Nc3ncc(C#N)c(N[C@@H]4CC5CCCN5C(C)(C)C4)n3)c(F)cc2C2CC2)c1=O` (stereo partly drawn) [Compound 76], for which the EC50 by setting is: under setting [1], less than 0.1 µM; under setting [2], less than 10 µM.
Regarding `CC1(C)CC(Nc2nc(Nc3ccc(OC4COC4)c(C#N)c3)ncc2F)CC2CCCN21` (single isomer, unassigned) [Compound 63, 5-(5-fluoro-4-(octahydro-5,5-dimethylindolizin-7-ylamino)pyrimidin-2-ylamino)-2-(oxetan-3-yloxy)benzonitrile], the EC50 by setting is: under setting [1], less than 0.5 µM; under setting [2], less than 10 µM.
Turning to `Cn1nnn(-c2cc(Nc3ncc(C#N)c(N[C@@H]4C[C@@H]5CCCN5C(C)(C)C4)n3)c(F)cc2OCC(C)(C)O)c1=O` [Compound 80, 4-((7R,8aS)-octahydro-5,5-dimethylindolizin-7-ylamino)-2-(4-(2-hydroxy-2-methylpropoxy)-2-fluoro-5-(4,5-dihydro-4-methyl-5-oxotetrazol-1-yl)phenylamino)pyrimidine-5-carbonitrile], the EC50 is, setting by setting: under setting [1], less than 0.1 µM; under setting [2], less than 10 µM.
As for `CC1(C)C[C@H](Nc2nc(Nc3cc(S(F)(F)(F)(F)F)ccc3F)ncc2F)C[C@@H]2CCCN21` [Compound 71], the EC50 was less than 1 µM under setting [1] and less than 10 µM under setting [2].
For `Cn1nnn(-c2cc(Nc3ncc(F)c(N[C@@H]4C[C@@H]5C[C@H](F)CN5C(C)(C)C4)n3)c(F)cc2C2CC2)c1=O` [Compound 67, 1-(5-(4-((2S,7R,8aR)-2-fluoro-octahydro-5,5-dimethylindolizin-7-ylamino)-5-fluoropyrimidin-2-ylamino)-2-cyclopropyl-4-fluorophenyl)-4-methyl-1H-tetrazol-5(4H)-one], in that order: less than 0.5 µM and less than 10 µM.
As for `Cn1nnn(-c2cc(Nc3ncc(F)c(N[C@@H]4C[C@@H]5CCCN5C(C)(C)C4)n3)ccc2O[C@@H]2CCOC2)c1=O` [Compound 48, 1-(2-((R)-tetrahydrofuran-3-yloxy)-5-(5-fluoro-4-(octahydro-5,5-dimethylindolizin-7-ylamino)pyrimidin-2-ylamino)phenyl)-4-methyl-1H-tetrazol-5(4H)-one], the EC50 runs as follows: under setting [1], less than 0.1 µM; under setting [2], less than 10 µM.
Regarding `Cn1nnn(-c2cc(Nc3ncc(F)c(N[C@@H]4CCN5[C@@H](CCC5(C)C)C4)n3)c(F)cc2C2CC2)c1=O` (single isomer, unassigned) [Compound 36], under setting [3], the EC50 was less than 10 µM.
With `Cn1nnn(-c2cc(Nc3ncc(F)c(N[C@H]4C[C@@H]5CCC(=O)N5C(C)(C)C4)n3)c(F)cc2C2CC2)c1=O` (racemic) [Compound 32, 1-(5-(5-fluoro-4-(hexahydro-5,5-dimethylindolizin-3(5H)-one-7-ylamino)pyrimidin-2-ylamino)-2-cyclopropyl-4-fluorophenyl)-4-methyl-1H-tetrazol-5(4H)-one], the EC50 reads like this: under setting [1], less than 10 µM; under setting [2], less than 10 µM.
In the case of `COc1cc(Nc2ncc(F)c(NC3CC4CCCN4C(C)(C)C3)n2)cc(-n2nnnc2C)c1` (stereo not drawn) [Compound 12, (R/S, S/R, R/R, S/S)-5-fluoro-N4-(octahydro-5,5-dimethylindolizin-7-yl)N2-(3-methoxy-5-(5-methyl-1H-tetrazol-1-yl)phenyl)pyrimidine-2,4-diamine], the EC50 under setting [3] is less than 1 µM.
Regarding `Cn1nnn(-c2cc(Nc3ncc(F)c(N[C@@H]4C[C@@H]5CCCN5C(C)(C)C4)n3)ccc2OC(C)(C)CO)c1=O` [Compound 86, 1-(2-(1-hydroxy-2-methylpropan-2-yloxy)-5-(4-((7R,8aS)-octahydro-5,5-dimethylindolizin-7-ylamino)-5-fluoropyrimidin-2-ylamino)phenyl)-4-methyl-1H-tetrazol-5(4H)-one], the EC50 reads like this: under setting [1], less than 0.1 µM; under setting [2], less than 10 µM.
As to `CC(C)N1CCC(Oc2ccc(Nc3ncc(F)c(NC4CC5CCCN5C(C)(C)C4)n3)cc2OC(F)F)CC1` (stereo not drawn) [Compound 7, (R/S, S/R, R/R, S/S)—N^2-(4-(1-isopropylpiperidin-4-yloxy)-3-(difluoromethoxy)phenyl)-5-fluoro-N^4-(octahydro-5,5-dimethylindolizin-7-yl)pyrimidine-2,4-diamine], under setting [3], the EC50 is less than 10 µM.
As to `C[C@@H](O)COc1cc(F)c(Nc2ncc(C#N)c(N[C@@H]3C[C@@H]4CCCN4C(C)(C)C3)n2)cc1-n1nnn(C)c1=O` [Compound 90, 4-((7R,8aS)-octahydro-5,5-dimethylindolizin-7-ylamino)-2-(4-((R)-2-hydroxypropoxy)-2-fluoro-5-(4,5-dihydro-4-methyl-5-oxotetrazol-1-yl)phenylamino)pyrimindine-5-carbonitrile], the EC50 was less than 0.1 µM under setting [1] and less than 10 µM under setting [2].
`Cn1nnn(-c2cc(Nc3ncc(F)c(NC4CC5CCCN5C(C)(C)C4)n3)ccc2OC2COC2)c1=O` (racemic) [Compound 38, 1-(5-(5-fluoro-4-(octahydro-5,5-dimethylindolizin-7-ylamino)pyrimidin-2-ylamino)-2-(oxetan-3-yloxy)phenyl)-4-methyl-1H-tetrazol-5(4H)-one]: under setting [3], the EC50 was less than 0.5 µM.

A word on the EC50: it is the midpoint of the concentration-response curve.
